According to patent US9458137B2, “Substituted indol-5-ol derivatives and their therapeutical applications” (NantBioScience, Inc., priority 2012, dated 2016):

How the values were obtained:
[1] = test system: human tumor cell lines of the cancer screening panel; assay: in vitro antiproliferation, NCI 60 cancer cell line panel (SRB); assay type: cell-based; conditions: 48 h
Protocol: NTW-3475 was also tested for its antiproliferative potential using cell lines from the NCI 60 cancer cell line panel.
The human tumor cell lines of the cancer screening panel are grown in RPMI 1640 medium containing 5% fetal bovine serum and 2 mM L-glutamine. For a typical screening experiment, cells are inoculated into 96 well microtiter plates in 100 μL at plating densities ranging from 5,000 to 40,000 cells/well depending on the doubling time of individual cell lines. After cell inoculation, the microtiter plates are incubated at 37° C., 5% CO2, 95% air and 100% relative humidity for 24 h prior to addition of experimental drugs. […]
Following drug addition, the plates are incubated for an additional 48 h at 37° C., 5% CO2, 95% air, and 100% relative humidity. […] Bound stain is subsequently solubilized with 10 mM trizma base, and the absorbance is read on an automated plate reader at a wavelength of 515 nm. […] Using the seven absorbance measurements [time zero, (Tz), control growth, (C), and test growth in the presence of drug at the five concentration levels (Ti)], the percentage growth is calculated at each of the drug concentrations levels. Percentage growth inhibition is calculated as: [(Ti-Tz)/(C-Tz)]×100 for concentrations for which Ti>/=Tz [(Ti-Tz)/Tz]×100 for concentrations for which Ti<Tz.
Three dose response parameters are calculated for each experimental agent. […]

[2] = test system: human MIAPaCa-2 pancreatic carcinoma xenograft; assay: MIAPaCa-2 pancreatic carcinoma xenograft; assay type: in vivo, athymic nude-Faxn1 mice
Protocol: The objective of the third study was to evaluate antitumor activities of novel multiple-kinase inhibitor NTW-3475 in human MIAPaCa-2 pancreatic carcinoma xenograft in athymic nude-Faxn1 mice.
Four animals were randomly assigned to study groups. Each animal was weighed, and then injected subcutaneously in the left and right flank area with 0.1 ml of 5.0×10^7 MIAPaCa-2 cells per mL.
Each test or control animal was on a 5-day on, two-day off for two cycles treatment schedule with negative control vehicle, positive control Abraxane at 20 mg/kg or 25, 50 mg/kg of NTW-3475. Tumor growth was measured with a digital hand held caliper twice weekly (once tumor emerges) prior to the first dosing and then two to three times weekly until euthanized.
FIGS. 42-44 depict the results of various concentrations of NTW-3456 on a nude mouse/xenograft the MIAPaCa-2 model of pancreatic carcinoma.
FIGS. 45 and 46 depict the results of various concentrations of NTW-3456, with or without Abraxane on a MiaPaCa-2 model of pancreatic carcinoma.

[3] = test system: TT human Thyroid carcinoma xenograft; assay: TT thyroid carcinoma xenograft; assay type: in vivo, nude mouse; conditions: TT xenograft
Description: This example assesses NTW-3475's anti-tumor activity using a scid mouse xenograft models for leukemias and nude mouse xenograft models of endometrial, pancreatic and thyroid carcinomas. NTW-3475 combination therapy was also studied in murine xenografts.
FIGS. 36-38 depict the results of various concentrations of NTW-3456 on a nude mouse/xenograft the TT cell model of thyroid carcinoma.

ALK4(h) = ALK4(h) (Homo sapiens, UniProt P36896); assay: Kinase panel activity; assay type: biochemical; conditions: 0.1 μM, ATP Km
Sequence of ALK4(h) (P36896 24-505): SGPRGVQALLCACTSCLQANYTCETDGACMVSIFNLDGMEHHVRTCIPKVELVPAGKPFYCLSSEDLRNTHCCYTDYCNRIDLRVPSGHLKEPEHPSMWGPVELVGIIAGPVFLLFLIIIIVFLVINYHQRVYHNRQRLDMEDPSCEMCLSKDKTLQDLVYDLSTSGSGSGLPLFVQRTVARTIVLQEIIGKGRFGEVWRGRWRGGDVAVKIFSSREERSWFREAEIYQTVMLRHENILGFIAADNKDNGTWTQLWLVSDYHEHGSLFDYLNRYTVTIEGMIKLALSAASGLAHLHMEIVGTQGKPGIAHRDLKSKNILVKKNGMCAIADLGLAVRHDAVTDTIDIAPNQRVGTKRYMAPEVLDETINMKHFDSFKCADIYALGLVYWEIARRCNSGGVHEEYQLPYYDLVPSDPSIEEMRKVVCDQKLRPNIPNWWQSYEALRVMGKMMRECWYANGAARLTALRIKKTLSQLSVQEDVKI
Protocol: (§1) The effect of NTW-3475 on kinase activity was tested for a wide range of kinases and is shown in Table 2: Summary Sheet, Activity % ATP Concentration: Km

MRCKα(h) = biological target: T1, MRCKα(h) (Homo sapiens, UniProt Q5VT25); assay: Kinase panel activity; assay type: biochemical; conditions: 0.1 μM, ATP Km
T1 construct: purchased Millipore (KinaseProfiler service)
T1 sequence (Q5VT25 whole entry): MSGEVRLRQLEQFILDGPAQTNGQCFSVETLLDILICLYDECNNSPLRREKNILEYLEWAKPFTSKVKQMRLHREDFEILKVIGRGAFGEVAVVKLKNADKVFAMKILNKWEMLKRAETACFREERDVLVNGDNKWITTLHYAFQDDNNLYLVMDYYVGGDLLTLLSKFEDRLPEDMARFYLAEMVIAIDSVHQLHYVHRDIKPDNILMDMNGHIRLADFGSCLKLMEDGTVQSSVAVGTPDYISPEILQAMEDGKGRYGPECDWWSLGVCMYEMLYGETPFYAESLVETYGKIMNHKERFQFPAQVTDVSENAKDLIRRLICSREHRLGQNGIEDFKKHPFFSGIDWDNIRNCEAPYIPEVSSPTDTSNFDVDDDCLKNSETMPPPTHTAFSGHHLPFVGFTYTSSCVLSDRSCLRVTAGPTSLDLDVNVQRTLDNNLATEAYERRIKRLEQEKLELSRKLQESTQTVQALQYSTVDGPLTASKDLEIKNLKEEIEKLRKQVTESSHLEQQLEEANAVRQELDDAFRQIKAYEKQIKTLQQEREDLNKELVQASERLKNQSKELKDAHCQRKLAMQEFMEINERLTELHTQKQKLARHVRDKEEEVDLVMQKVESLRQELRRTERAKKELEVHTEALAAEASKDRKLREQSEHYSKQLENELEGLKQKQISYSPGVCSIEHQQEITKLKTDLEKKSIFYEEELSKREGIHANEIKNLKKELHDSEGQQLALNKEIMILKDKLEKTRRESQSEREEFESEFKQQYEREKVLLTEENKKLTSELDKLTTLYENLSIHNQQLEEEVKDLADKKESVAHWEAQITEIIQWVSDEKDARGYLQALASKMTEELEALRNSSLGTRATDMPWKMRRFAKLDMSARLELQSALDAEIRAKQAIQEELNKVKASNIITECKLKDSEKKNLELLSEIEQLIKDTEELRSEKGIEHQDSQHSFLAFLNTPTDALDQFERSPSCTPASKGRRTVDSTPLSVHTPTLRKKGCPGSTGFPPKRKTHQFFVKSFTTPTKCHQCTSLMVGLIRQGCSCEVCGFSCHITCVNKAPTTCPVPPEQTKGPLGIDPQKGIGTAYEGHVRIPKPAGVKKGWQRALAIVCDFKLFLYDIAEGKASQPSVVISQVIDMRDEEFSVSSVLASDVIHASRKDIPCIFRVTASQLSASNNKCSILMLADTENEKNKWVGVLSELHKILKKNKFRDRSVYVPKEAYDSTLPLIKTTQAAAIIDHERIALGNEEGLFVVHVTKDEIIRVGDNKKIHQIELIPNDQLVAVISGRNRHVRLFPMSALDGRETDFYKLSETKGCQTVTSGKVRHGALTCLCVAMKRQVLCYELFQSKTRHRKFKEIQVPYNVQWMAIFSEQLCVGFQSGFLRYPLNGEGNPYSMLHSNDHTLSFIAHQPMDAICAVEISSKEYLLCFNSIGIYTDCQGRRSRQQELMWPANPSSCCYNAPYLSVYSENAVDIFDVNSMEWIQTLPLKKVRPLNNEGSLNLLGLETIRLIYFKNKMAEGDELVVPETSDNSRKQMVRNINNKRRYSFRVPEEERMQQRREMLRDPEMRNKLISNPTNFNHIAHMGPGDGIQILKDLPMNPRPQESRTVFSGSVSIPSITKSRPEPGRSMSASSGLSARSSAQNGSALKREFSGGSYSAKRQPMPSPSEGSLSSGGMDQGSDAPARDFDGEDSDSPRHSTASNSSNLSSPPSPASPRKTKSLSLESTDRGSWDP
Protocol: as §1

HIPK1(h) = HIPK1(h) (Homo sapiens, UniProt Q86Z02); assay: Kinase panel activity; assay type: biochemical; conditions: 0.1 μM, ATP Km
Protocol: as §1

EphA5(h) = biological target: T2, EphA5(h) (Homo sapiens, UniProt P54756); assay: Kinase panel activity; assay type: biochemical; conditions: 0.1 μM, ATP Km
T2 construct: purchased Millipore (KinaseProfiler service)
T2 sequence (P54756 25-1037): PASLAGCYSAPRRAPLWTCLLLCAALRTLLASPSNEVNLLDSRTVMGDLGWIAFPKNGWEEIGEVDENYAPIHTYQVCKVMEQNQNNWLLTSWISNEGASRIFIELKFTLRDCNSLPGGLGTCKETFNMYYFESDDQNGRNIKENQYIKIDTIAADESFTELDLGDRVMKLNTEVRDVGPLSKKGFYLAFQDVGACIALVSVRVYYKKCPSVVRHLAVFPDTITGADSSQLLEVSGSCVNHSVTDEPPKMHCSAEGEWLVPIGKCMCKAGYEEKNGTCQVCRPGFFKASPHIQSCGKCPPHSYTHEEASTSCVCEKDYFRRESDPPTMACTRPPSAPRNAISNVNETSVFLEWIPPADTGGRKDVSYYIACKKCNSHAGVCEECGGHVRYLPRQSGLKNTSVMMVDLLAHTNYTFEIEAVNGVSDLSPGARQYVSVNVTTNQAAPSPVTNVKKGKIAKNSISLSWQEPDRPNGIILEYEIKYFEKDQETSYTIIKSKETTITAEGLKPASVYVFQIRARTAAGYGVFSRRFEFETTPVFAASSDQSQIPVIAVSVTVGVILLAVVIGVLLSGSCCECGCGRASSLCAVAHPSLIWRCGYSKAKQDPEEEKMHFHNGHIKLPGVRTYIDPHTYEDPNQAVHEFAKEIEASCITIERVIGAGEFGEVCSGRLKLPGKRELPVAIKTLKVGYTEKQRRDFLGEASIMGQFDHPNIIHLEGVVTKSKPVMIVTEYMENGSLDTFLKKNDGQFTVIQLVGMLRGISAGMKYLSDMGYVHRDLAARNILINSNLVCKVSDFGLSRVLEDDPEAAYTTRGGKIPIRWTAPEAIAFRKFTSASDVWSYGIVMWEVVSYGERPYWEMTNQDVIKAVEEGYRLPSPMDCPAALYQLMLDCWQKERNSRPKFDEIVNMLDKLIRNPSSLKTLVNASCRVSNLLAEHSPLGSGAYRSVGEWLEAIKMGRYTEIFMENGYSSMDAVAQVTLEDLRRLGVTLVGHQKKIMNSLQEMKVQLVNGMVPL
Protocol: as §1

F1t4(h) = F1t4(h) (Homo sapiens, UniProt P35916); assay: Kinase panel activity; assay type: biochemical; conditions: 0.1 μM, ATP Km
Sequence of F1t4(h) (P35916 25-1363): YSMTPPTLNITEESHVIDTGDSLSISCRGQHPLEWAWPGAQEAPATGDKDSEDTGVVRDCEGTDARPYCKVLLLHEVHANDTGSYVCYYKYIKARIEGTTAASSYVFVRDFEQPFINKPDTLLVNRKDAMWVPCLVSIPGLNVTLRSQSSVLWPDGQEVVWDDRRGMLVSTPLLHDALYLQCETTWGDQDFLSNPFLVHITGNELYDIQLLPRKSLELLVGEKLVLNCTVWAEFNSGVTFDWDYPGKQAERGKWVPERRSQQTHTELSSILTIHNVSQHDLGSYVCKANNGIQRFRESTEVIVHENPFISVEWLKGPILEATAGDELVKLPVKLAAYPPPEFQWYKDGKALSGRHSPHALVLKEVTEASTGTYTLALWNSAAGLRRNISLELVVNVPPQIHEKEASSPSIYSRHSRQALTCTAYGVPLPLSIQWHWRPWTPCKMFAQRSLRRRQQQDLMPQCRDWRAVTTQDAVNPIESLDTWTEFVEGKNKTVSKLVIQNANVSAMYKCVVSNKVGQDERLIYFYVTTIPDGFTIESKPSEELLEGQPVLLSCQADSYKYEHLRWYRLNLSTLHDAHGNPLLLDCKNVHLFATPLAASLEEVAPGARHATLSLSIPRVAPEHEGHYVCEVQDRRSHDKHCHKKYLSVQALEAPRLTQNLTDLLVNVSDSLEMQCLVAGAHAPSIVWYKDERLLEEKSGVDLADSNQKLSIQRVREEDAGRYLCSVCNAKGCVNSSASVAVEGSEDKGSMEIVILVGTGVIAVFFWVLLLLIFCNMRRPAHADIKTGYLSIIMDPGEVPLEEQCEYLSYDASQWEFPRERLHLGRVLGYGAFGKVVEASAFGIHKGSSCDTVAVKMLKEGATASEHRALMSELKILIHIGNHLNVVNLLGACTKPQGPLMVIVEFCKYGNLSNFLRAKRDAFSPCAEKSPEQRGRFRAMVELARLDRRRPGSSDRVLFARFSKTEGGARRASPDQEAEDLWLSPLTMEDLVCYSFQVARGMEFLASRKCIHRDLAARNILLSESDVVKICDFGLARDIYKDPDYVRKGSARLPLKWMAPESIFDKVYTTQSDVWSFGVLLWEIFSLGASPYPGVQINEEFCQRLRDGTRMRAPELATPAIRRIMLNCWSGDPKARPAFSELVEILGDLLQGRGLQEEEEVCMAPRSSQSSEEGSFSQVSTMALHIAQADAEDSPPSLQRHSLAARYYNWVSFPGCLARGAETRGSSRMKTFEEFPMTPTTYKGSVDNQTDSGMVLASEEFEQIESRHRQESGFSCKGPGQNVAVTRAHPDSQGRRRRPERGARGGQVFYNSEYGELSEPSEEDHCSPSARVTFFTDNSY
Protocol: as §1

[4] = test system: human MV411 human acute myelogenous leukemia (AML) xenograft; assay type: in vivo, SCID mice; conditions: 25, 50 mg/kg, 5-day on, two-day off for two cycles; female SCID mice
Protocol: The objective of the first study was to evaluate antitumor activities of the novel multiple-kinase inhibitor NTW-3475 against human MV411 human acute myelogenous leukemia (AML) xenograft model in female SCID mice.
Four or six animals were randomly assigned to each study group. Each animal was injected subcutaneously in the left and right flank area with 0.1 ml of 1.0×10^8 MV411 cells per mL
Each test or control animal was placed on a 5-day on, two-day off for two cycles of vehicle negative control or 25, 50 mg/kg of NTW-3475. Tumor growth was measured with a digital hand held caliper twice weekly (once tumor emerges) prior to the first dosing and then two to three times weekly until euthanized. Animals were weighed prior to tumor cell injection, prior to dosing, two to three times weekly with tumor growth measurements, and prior to euthanasia.
FIGS. 27-32 depict the results of various concentrations of NTW-3456 on tumor growth in scid mouse/xenograft model of AML using MV411 cells. […] This invention is characterized as it is here was a correlation between the inhibition of the pFLT3 kinase and growth control.

c-RAF(h) = assay: Kinase panel activity; assay type: biochemical, human; conditions: 0.1 μM, ATP Km
Protocol: as §1

MLCK(h) = assay: Kinase panel activity; assay type: biochemical, human; conditions: 0.1 μM, ATP Km
Protocol: as §1

Q: What does the source list for `Cc1cc2c(F)c(Oc3nc(Nc4cc(C5CC5)[nH]n4)cc(N4CCN(C)CC4)n3)cc(F)c2[nH]1` [NTW-3475]?
A: antiproliferative activity [1]: strong antiproliferative activity in at least 13 of the 16 cell lines studied; anti-tumor effect against pancreatic carcinoma cells ([2]; 25, 50 mg/kg, 5-day on, two-day off for two cycles): strong anti-tumor effect; anti-tumor effect of the combination ([2]; in combination with Abraxane): anti-tumor effect; anti-tumor effect [3]: anti-tumor effect; Activity % (ALK4(h)): 28%; Activity % (MRCKα(h)): 102%; Activity % (HIPK1(h)): 91%; Activity % (EphA5(h)): 122%; Activity % (F1t4(h)): 0%; anti-tumor effect against AML [4]: strong anti-tumor effect; Activity % (c-RAF(h)): 94%; Activity % (MLCK(h)): 110%
